Experiment [1] relates to Spontaneously hypertensive male rats. The experiment can be described thus: Experiment 1-1 Hypotensive activity (oral, conscious spontaneously hypertensive rats). Type of experiment: in vivo, rat. As to conditions: for Recovering time / Time for recovering 1/2 of max. hypotension / Time until reaching to max. hypotension / Maximum hypotension: 10 mg/kg oral; for Maximum hypotension: mean blood pressure; for hypotensive activity (in words): Table 4, comparison with nifedipine and nicardipine hydrochloride where stated.
Description: Spontaneously hypertensive male rats (13-15 week age, one group: 3 rats) were used. […] The rats were fixed in a Howlman cage without fasting, and the femoral arterial pressure was measured by a direct method without anesthesia with a cannula which was previously inserted into the femoral artery of the animal, via a pressure transducer (MPU-0.5, manufactured by Nippon Koden K.K.). The test compounds were orally administered in the form of a suspension in 0.5% methyl cellulose solution in a dose of 10 mg/kg (in some compounds, 3 mg/kg). In the control group, only 0.5% methyl cellulose solution was administered likewise. The blood pressure was measured for 5 hours after the administration of test compounds.

For experiment [2], the system named is isolated heart. Nature of the experiment: Experiment 2-1 Activity on isolated heart. On the set-up: species or system Japanese white rabbit. The conditions noted are these: for activation at 3 µg/heart / inhibition at 3 µg/heart, 3 µg/heart / inhibition at 3 µg/heart: Oryctolagus cuniculus, 3 μg/heart; for activation at 3 µg/heart: read-out: Increase of coronary perfusion; for inhibition at 3 µg/heart, 3 µg/heart: read-out: Inhibitory rate of systole; for inhibition at 3 µg/heart: read-out: Reducing rate of heart pulse. Here is the method:
Japanese white rabbit (weighing 2.2-2.5 kg) was anesthetized by introvenous injection of nembutal (20 mg/kg) and then sacrificed by bleeding from common carotid artery. […] After stabilizing the heart preparation for 90 minutes, the test compound was administered. There were measured the perfusion volume with a drop-counting meter (ET-600G type, manufactured by Nippon Koden K.K.) and the heart pulse and the contractility via a force-displacement transducer (FD pick up, SB-IT type, manufactured by Nippon Koden K.K.) (for measuring heart pulse, an instant pulse meter (AT-601G type, minufactured by Nippon Koden K.K.) being further used).

The test system of experiment [3] is isolated aorta. Nature of the experiment: Experiment 3 Relaxing activity on the isolated aorta (30 mM KCl contracted). The conditions noted are these: for EC50: Oryctolagus cuniculus, 30 mM KCl contraction, maximum relaxation by papaverine = 100%, read-out: EC50 (concentration for 50% relaxation); for relaxing / vasodilating activity on isolated aorta (in words): Table 8, comparison with nifedipine and nicardipine hydrochloride, etc. where stated. More on the design: species or system Japanese white rabbit.

“Also recorded” adds a separate entry of the source.

On to `COC(=O)C1=C(C)NC(C)=C(C(N)=O)C1c1ccccc1[N+](=O)[O-]` (centres unmarked) [C, reference compound], for which, in experiment [1], the Recovering time stood at 2.0 h, the “Time for recovering 1/2 of max. hypotension” value (from here on “Time … of max. hypotension”) came to 1.5 h, the “Time until reaching to max. hypotension” value was 15 min and the Maximum hypotension is 20 mmHg. Moreover, in experiment [2], the activation at 3 µg/heart came out at 16%; the inhibition at 3 µg/heart, 3 µg/heart was 17%; the inhibition at 3 µg/heart is 7%. Further, in experiment [3], the EC50 is > 1000 nM.
`CCOC(=O)C1=C(C)NC(C)=C(C(=O)N(C)C)C1c1cccc([N+](=O)[O-])c1` (centres unmarked) [E, reference compound]: in experiment [1], the Recovering time is 1.0 h, the “Time … of max. hypotension” value worked out at 0.5 h, the “Time until reaching to max. hypotension” value was determined as 15 min and the Maximum hypotension was 5 mmHg. In experiment [2], the activation at 3 µg/heart amounted to 0%; the inhibition at 3 µg/heart, 3 µg/heart turned out to be 0%; the inhibition at 3 µg/heart is 1%. The EC50 in experiment [3] is > 1000 nM.
On to `CCCCCCCOC(=O)C1=C(C)NC(C)=C(C(=O)NC(C)C)C1c1ccccc1[N+](=O)[O-]` (centres unmarked) [Example 1, n-heptyl 2,6-dimethyl-3-isopropylaminocarbonyl-4-(o-nitrophenyl)-1,4-dihydropyridine-5-carboxylate], for which, in experiment [1], the Recovering time is > 5.0 h, the “Time … of max. hypotension” value was > 5.0 h, the “Time until reaching to max. hypotension” value came out at 30 min and the Maximum hypotension was 78 mmHg. Further, in experiment [1], the “hypotensive activity (in words)” value is “the same or more potent activity with longer duration; also recorded: potent hypotensive activity”. In experiment [2], the activation at 3 µg/heart worked out at 25%; the inhibition at 3 µg/heart, 3 µg/heart was found to be 40%; the inhibition at 3 µg/heart was determined as 15%. The “inhibitions on the heart pulse and contactility (in words)” value in experiment [2] (Table 6) is “moderate inhibitions on the heart pulse and contactility”. In experiment [3], the EC50 turned out to be 580 nM and the “relaxing / vasodilating activity on isolated aorta (in words)” value (shortened to “relaxing / vasodilating activity”) is recorded as “somewhat weak vasodilating activity”.
Take `COC(=O)C1=C(C)NC(C)=C(C(=O)NC(C)C)C1c1ccccc1[N+](=O)[O-]` (centres unmarked) [Example 5, methyl 2,6-dimethyl-3-isopropylaminocarbonyl-4-(o-nitrophenyl)-1,4-dihydropyridine-5-carboxylate]: in experiment [1], the Recovering time is > 5.0 h, the “Time … of max. hypotension” value turned out to be 5.0 h, the “Time until reaching to max. hypotension” value stood at 15 min and the Maximum hypotension stood at 70 mmHg. Besides, the “hypotensive activity (in words)” value in experiment [1] is recorded as “the same or more potent activity with longer duration”. In experiment [2], the activation at 3 µg/heart turned out to be 28%; the inhibition at 3 µg/heart, 3 µg/heart came out at 15%; the inhibition at 3 µg/heart was 25%. The “coronary vasodilating activity (in words)” value in experiment [2] (Table 6, comparison with nifedipine and nicardipine hydrochloride, etc.) is recorded as “the same or more potent coronary vasodilating activity with longer duration”. Also, in experiment [3], the EC50 was 20 nM and the “relaxing / vasodilating activity” value is recorded as “the same or more potent activity”.
Regarding `CCCCOC(=O)C1=C(C)NC(C)=C(C(=O)NC(C)C)C1c1ccccc1[N+](=O)[O-]` (centres unmarked) [Example 6, n-butyl 2,6-dimethyl-3-isopropylaminocarbonyl-4-(o-nitrophenyl)-1,4-dihydropyridine-5-carboxylate], in experiment [1], the Recovering time was found to be 5.0 h, the “Time … of max. hypotension” value was 3.5 h, the “Time until reaching to max. hypotension” value worked out at 15 min and the Maximum hypotension is 57 mmHg. Further, in experiment [2], the activation at 3 µg/heart worked out at 35%; the inhibition at 3 µg/heart, 3 µg/heart was 25%; the inhibition at 3 µg/heart stood at 13%. In experiment [3], the EC50 is 12 nM and the “relaxing / vasodilating activity” value is reported as “the same or more potent activity”.
On to `CCCCCOC(=O)C1=C(C)NC(C)=C(C(=O)NC(C)C)C1c1ccccc1[N+](=O)[O-]` (centres unmarked) [Example 8, n-pentyl 2,6-dimethyl-3-isopropylaminocarbonyl-4-(o-nitrophenyl)-1,4-dihydropyridine-5-carboxylate], for which, in experiment [1], the Recovering time was determined as 5.0 h, the “Time … of max. hypotension” value was found to be 4.0 h, the “Time until reaching to max. hypotension” value turned out to be 15 min and the Maximum hypotension is given as 30 mmHg. Moreover, in experiment [2], the activation at 3 µg/heart was 35%; the inhibition at 3 µg/heart, 3 µg/heart is 13%; the inhibition at 3 µg/heart stood at 5%. Moreover, in experiment [3], the EC50 amounted to 30 nM and the “relaxing / vasodilating activity” value is “the same or more potent activity”.
`CCOC(=O)C1=C(C)NC(C)=C(C(=O)NC(C)C)C1c1ccccc1[N+](=O)[O-]` (centres unmarked) [Example 43]: in experiment [1], the Recovering time stood at 5.0 h, the “Time … of max. hypotension” value is 2.5 h, the “Time until reaching to max. hypotension” value was 15 min and the Maximum hypotension stood at 68 mmHg. Also, in experiment [2], the activation at 3 µg/heart was 35%; the inhibition at 3 µg/heart, 3 µg/heart came to 35%; the inhibition at 3 µg/heart was 40%. In experiment [3], the EC50 was found to be 18 nM and the “relaxing / vasodilating activity” value is “the same or more potent activity”.
`CCCOC(=O)C1=C(C)NC(C)=C(C(=O)NC(C)C)C1c1ccccc1[N+](=O)[O-]` (centres unmarked) [Example 44]: in experiment [1], the Recovering time worked out at 4.0 h, the “Time … of max. hypotension” value amounted to 2.5 h, the “Time until reaching to max. hypotension” value came out at 15 min and the Maximum hypotension was determined as 60 mmHg. In experiment [2], the activation at 3 µg/heart was 30%; the inhibition at 3 µg/heart, 3 µg/heart was 20%; the inhibition at 3 µg/heart came out at 16%. In experiment [3], the EC50 was determined as 17 nM and the “relaxing / vasodilating activity” value was “the same or more potent activity”.
For `CC1=C(C(=O)NC(C)C)C(c2ccccc2[N+](=O)[O-])C(C(=O)OC(C)C)=C(C)N1` (centres unmarked) [Example 45], in experiment [1], the Recovering time came to 1.5 h, the “Time … of max. hypotension” value is 0.5 h, the “Time until reaching to max. hypotension” value came to 15 min and the Maximum hypotension was 15 mmHg. Besides, in experiment [2], the activation at 3 µg/heart amounted to 0%; the inhibition at 3 µg/heart, 3 µg/heart came out at 0%; the inhibition at 3 µg/heart was found to be 0%. In addition, the EC50 in experiment [3] was 170 nM.
For the compound `CC1=C(C(=O)NC(C)C)C(c2ccccc2[N+](=O)[O-])C(C(=O)OCC(C)C)=C(C)N1` (centres unmarked) [Example 46], in experiment [1], the Recovering time was 1.5 h, the “Time … of max. hypotension” value is 0.5 h, the “Time until reaching to max. hypotension” value was 15 min and the Maximum hypotension is listed as 10 mmHg. Also, in experiment [2], the activation at 3 µg/heart is 14%; the inhibition at 3 µg/heart, 3 µg/heart amounted to 9%; the inhibition at 3 µg/heart is 3%. In experiment [3], the EC50 came to 70 nM and the “relaxing / vasodilating activity” value is reported as “the same or more potent activity”.
`CC1=C(C(=O)NC(C)C)C(c2ccccc2[N+](=O)[O-])C(C(=O)OCCC(C)C)=C(C)N1` (centres unmarked) [Example 47]: in experiment [1], the Recovering time was 3.0 h, the “Time … of max. hypotension” value was determined as 2.0 h, the “Time until reaching to max. hypotension” value stood at 30 min and the Maximum hypotension came to 32 mmHg. Further, in experiment [2], the activation at 3 µg/heart is 35%; the inhibition at 3 µg/heart, 3 µg/heart turned out to be 5%; the inhibition at 3 µg/heart came out at 11%. For the same compound, in experiment [3], the EC50 amounted to 20 nM and the “relaxing / vasodilating activity” value is reported as “the same or more potent activity”.
`CCC(CC)OC(=O)C1=C(C)NC(C)=C(C(=O)NC(C)C)C1c1ccccc1[N+](=O)[O-]` (centres unmarked) [Example 50]: the EC50 in experiment [3] turned out to be 700 nM.
As to `CC1=C(C(=O)NC(C)C)C(c2ccccc2[N+](=O)[O-])C(C(=O)OCCCC(C)C)=C(C)N1` (centres unmarked) [Example 51], in experiment [1], the Recovering time is > 5.0 h, the “Time … of max. hypotension” value stood at 3.0 h, the “Time until reaching to max. hypotension” value was 30 min and the Maximum hypotension is on record as 40 mmHg. Also, in experiment [2], the activation at 3 µg/heart came out at 40%; the inhibition at 3 µg/heart, 3 µg/heart is 30%; the inhibition at 3 µg/heart was found to be 25%. The EC50 in experiment [3] came to 130 nM.
In the case of `CCCOC(=O)C1=C(C)NC(C)=C(C(=O)NC(C)C)C1c1cccc([N+](=O)[O-])c1` (centres unmarked) [Example 62], in experiment [2], the activation at 3 µg/heart stood at 20%; the inhibition at 3 µg/heart, 3 µg/heart was 2%; the inhibition at 3 µg/heart is 6%. The EC50 in experiment [3] came to 150 nM.
For `CCCCCOC(=O)C1=C(C)NC(C)=C(C(=O)NC(C)C)C1c1cccc([N+](=O)[O-])c1` (centres unmarked) [Example 66], in experiment [2], the activation at 3 µg/heart is 16%; the inhibition at 3 µg/heart, 3 µg/heart worked out at 15%; the inhibition at 3 µg/heart was 13%. Further, in experiment [3], the EC50 is 70 nM and the “relaxing / vasodilating activity” value was “the same or more potent activity”.
Take `CCCCNC(=O)C1=C(C)NC(C)=C(C(=O)OCCCC)C1c1cccc([N+](=O)[O-])c1` (centres unmarked) [Example 69]: the EC50 in experiment [3] worked out at 570 nM.
